Experimental data from ChEMBL document CHEMBL1201862, “PubChem BioAssay data set” (2004).
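In this assay, cells in 96-well plates receive the compound at five concentrations for 48 hours. Endpoints are linearly interpolated between the surrounding concentrations. Here, GI50 denotes the concentration required for 50% inhibition of growth.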 Active and inactive are the calls of the source. No stated cut-off is given here; in the data, active = GI50 up to about 1.1 µM and inactive = higher.

Key:
Experiment in all cases: NCI tumour cell line growth inhibition, 48 h
HOP-18 = tested on: HOP-18
HT-29 = tested on: HT-29
OVCAR-5 = tested on: OVCAR-5
OVCAR-3 = tested on: OVCAR-3
OVCAR-4 = tested on: OVCAR-4
IGROV-1 = tested on: IGROV-1
UACC-257 = tested on: UACC-257
LXFL 529 = tested on: LXFL 529
ACHN = tested on: ACHN
SNB-78 = tested on: SNB-78
HCC 2998 = tested on: HCC 2998
CAKI-1 = tested on: CAKI-1
NCI-H23 = tested on: NCI-H23
M19-MEL = tested on: M19-MEL
SK-MEL-28 = tested on: SK-MEL-28
Malme-3M = tested on: Malme-3M
KM12 = tested on: KM12
CCRF-CEM = tested on: CCRF-CEM
SK-OV-3 = tested on: SK-OV-3
COLO 205 = tested on: COLO 205
HCT-15 = tested on: HCT-15
A498 = tested on: A498
TK-10 = tested on: TK-10
SF-268 = tested on: SF-268
LOX IMVI = tested on: LOX IMVI
RXF 631 = tested on: RXF 631
SN12C = tested on: SN12C
U-251 = tested on: U-251
DMS-114 = tested on: DMS-114
MOLT-4 = tested on: MOLT-4
RXF 393 = tested on: RXF 393
SR = tested on: SR
OVCAR-8 = tested on: OVCAR-8
KM-20L2 = tested on: KM-20L2
NCI-H522 = tested on: NCI-H522
K562 = tested on: K562
DMS-273 = tested on: DMS-273
SNB-75 = tested on: SNB-75
SK-MEL-2 = tested on: SK-MEL-2
SK-MEL-5 = tested on: SK-MEL-5
UACC-62 = tested on: UACC-62
DLD-1 = tested on: DLD-1
SW-620 = tested on: SW-620
M14 = tested on: M14
HL-60 = tested on: HL-60
RPMI-8226 = tested on: RPMI-8226
NCI-H460 = tested on: NCI-H460
HCT-116 = tested on: HCT-116
EKVX = tested on: EKVX
SNB-19 = tested on: SNB-19
786-0 = tested on: 786-0
HOP-62 = tested on: HOP-62
SF-295 = tested on: SF-295
HOP-92 = tested on: HOP-92
A549 = tested on: A549
UO-31 = tested on: UO-31
NCI-H226 = tested on: NCI-H226
SF-539 = tested on: SF-539

With `CC(Cl)(/C=C/Cl)C(Cl)/C=C/C(Cl)(CCl)CBr` (centres undefined) the GI50 (HOP-18) was 2.52 µM (inactive), the GI50 (HT-29) was 1.69 µM (inactive) and the GI50 (OVCAR-5) was 16 µM (inactive). The GI50 (OVCAR-3) was 12.5 µM (inactive), the GI50 (OVCAR-4) was 3.05 µM (inactive) and the GI50 (IGROV-1) was 8.71 µM (inactive). For the same compound, the GI50 (UACC-257) was 2.2 µM (inactive), the GI50 (LXFL 529) was 1.22 µM (inactive) and the GI50 (ACHN) was 5.51 µM (inactive). For the same compound, the GI50 (SNB-78) was 1.75 µM (inactive), the GI50 (HCC 2998) was 14.6 µM (inactive) and the GI50 (CAKI-1) was 12.2 µM (inactive). The GI50 (NCI-H23) was 1.88 µM (inactive), the GI50 (M19-MEL) was 3.12 µM (inactive) and the GI50 (SK-MEL-28) was 2.24 µM (inactive). The GI50 (Malme-3M) was 3.37 µM (inactive), the GI50 (KM12) was 6.64 µM (inactive) and the GI50 (CCRF-CEM) was 0.305 µM (active). For the same compound, the GI50 (SK-OV-3) was 17.1 µM (inactive), the GI50 (COLO 205) was 2.01 µM (inactive) and the GI50 (HCT-15) was 0.308 µM. For the same compound, the GI50 (A498) was 13.5 µM (inactive), the GI50 (TK-10) was 7.45 µM (inactive) and the GI50 (SF-268) was 2.09 µM (inactive). For the same compound, the GI50 (LOX IMVI) was 1.66 µM (inactive), the GI50 (RXF 631) was 1.91 µM (inactive) and the GI50 (SN12C) was 3.18 µM (inactive). The GI50 (U-251) was 3.72 µM (inactive), the GI50 (DMS-114) was 1.96 µM (inactive) and the GI50 (MOLT-4) was 0.373 µM (active). The GI50 (RXF 393) was 1.45 µM (inactive), the GI50 (SR) was 0.191 µM (active) and the GI50 (OVCAR-8) was 1.71 µM (inactive). For the same compound, the GI50 (KM-20L2) was 5.22 µM (inactive), the GI50 (NCI-H522) was 1.45 µM (inactive) and the GI50 (K562) was 1.65 µM (inactive). For the same compound, the GI50 (DMS-273) was 3.63 µM (inactive), the GI50 (SNB-75) was 3.17 µM (inactive) and the GI50 (SK-MEL-2) was 3.82 µM (inactive). The GI50 (SK-MEL-5) was 7.52 µM (inactive), the GI50 (UACC-62) was 1.68 µM (inactive) and the GI50 (DLD-1) was 2.47 µM (inactive). For the same compound, the GI50 (SW-620) was 2.15 µM (inactive), the GI50 (M14) was 2.54 µM (inactive) and the GI50 (HL-60) was 0.533 µM (active). The GI50 (RPMI-8226) was 1.66 µM (inactive), the GI50 (NCI-H460) was 3.15 µM (inactive) and the GI50 (HCT-116) was 1.54 µM (inactive). The GI50 (EKVX) was 31.8 µM (inactive), the GI50 (SNB-19) was 14.1 µM (inactive) and the GI50 (786-0) was 2.9 µM (inactive). The GI50 (HOP-62) was 24.3 µM (inactive), the GI50 (SF-295) was 6.53 µM (inactive) and the GI50 (HOP-92) was 2.07 µM (inactive). The GI50 (A549) was 15.2 µM (inactive), the GI50 (UO-31) was 14.5 µM (inactive) and the GI50 (NCI-H226) was 10.2 µM (inactive).
For `Cc1ccc(S(=O)(=O)N/N=c2\c(C)c(C3=NS(=O)(=O)c4cc(S(N)(=O)=O)c(Cl)cc4N3)oc3c(Cl)cc(Cl)cc23)cc1`, the GI50 (HOP-18) was 45.3 µM (inactive), the GI50 (HT-29) was 49.9 µM (inactive) and the GI50 (OVCAR-5) was > 100 µM (inactive). For the same compound, the GI50 (OVCAR-3) was > 100 µM (inactive), the GI50 (OVCAR-4) was > 100 µM (inactive) and the GI50 (IGROV-1) was > 100 µM (inactive). The GI50 (UACC-257) was > 100 µM (inactive), the GI50 (LXFL 529) was > 100 µM (inactive) and the GI50 (ACHN) was > 100 µM (inactive). The GI50 (SNB-78) was > 100 µM (inactive), the GI50 (HCC 2998) was > 100 µM (inactive) and the GI50 (CAKI-1) was > 100 µM (inactive). For the same compound, the GI50 (NCI-H23) was > 100 µM (inactive), the GI50 (M19-MEL) was > 100 µM (inactive) and the GI50 (SK-MEL-28) was > 100 µM (inactive). The GI50 (Malme-3M) was > 100 µM (inactive), the GI50 (KM12) was > 100 µM (inactive) and the GI50 (CCRF-CEM) was 32.2 µM (inactive). For the same compound, the GI50 (SK-OV-3) was > 100 µM (inactive), the GI50 (COLO 205) was 22.3 µM (inactive) and the GI50 (HCT-15) was 39.4 µM. For the same compound, the GI50 (A498) was > 100 µM (inactive), the GI50 (TK-10) was > 100 µM (inactive) and the GI50 (SF-268) was > 100 µM (inactive). The GI50 (LOX IMVI) was 86.5 µM (inactive), the GI50 (RXF 631) was 79.1 µM (inactive) and the GI50 (SN12C) was > 100 µM (inactive). For the same compound, the GI50 (U-251) was 23.5 µM (inactive), the GI50 (DMS-114) was 26.9 µM (inactive) and the GI50 (MOLT-4) was > 100 µM (inactive). For the same compound, the GI50 (RXF 393) was 59.7 µM (inactive), the GI50 (SR) was > 100 µM (inactive) and the GI50 (OVCAR-8) was > 100 µM (inactive). The GI50 (KM-20L2) was > 100 µM (inactive), the GI50 (K562) was 61.1 µM (inactive) and the GI50 (DMS-273) was 27 µM (inactive). The GI50 (SNB-75) was > 100 µM (inactive), the GI50 (SK-MEL-2) was > 100 µM (inactive) and the GI50 (SK-MEL-5) was > 100 µM (inactive). The GI50 (UACC-62) was > 100 µM (inactive), the GI50 (DLD-1) was > 100 µM (inactive) and the GI50 (SW-620) was 6.87 µM (inactive). For the same compound, the GI50 (M14) was > 100 µM (inactive), the GI50 (HL-60) was > 100 µM (inactive) and the GI50 (RPMI-8226) was 36.9 µM (inactive). The GI50 (NCI-H460) was 60.7 µM (inactive), the GI50 (HCT-116) was 65.5 µM (inactive) and the GI50 (EKVX) was > 100 µM (inactive). The GI50 (SNB-19) was > 100 µM (inactive), the GI50 (786-0) was > 100 µM (inactive) and the GI50 (HOP-62) was > 100 µM (inactive). The GI50 (SF-295) was > 100 µM (inactive), the GI50 (SF-539) was > 100 µM (inactive) and the GI50 (HOP-92) was 27.7 µM (inactive). For the same compound, the GI50 (A549) was > 100 µM (inactive), the GI50 (UO-31) was > 100 µM (inactive) and the GI50 (NCI-H226) was > 100 µM (inactive).
